Experiments:
lysosomal mannosidase = target: T1, lysosomal mannosidase (Homo sapiens, UniProt O00754); assay: Inhibition of lysosomal mannosidase in vitro; type: biochemical; conditions: pH 5.0, 60 min at 37° C.
T1 sequence (O00754 50-1011): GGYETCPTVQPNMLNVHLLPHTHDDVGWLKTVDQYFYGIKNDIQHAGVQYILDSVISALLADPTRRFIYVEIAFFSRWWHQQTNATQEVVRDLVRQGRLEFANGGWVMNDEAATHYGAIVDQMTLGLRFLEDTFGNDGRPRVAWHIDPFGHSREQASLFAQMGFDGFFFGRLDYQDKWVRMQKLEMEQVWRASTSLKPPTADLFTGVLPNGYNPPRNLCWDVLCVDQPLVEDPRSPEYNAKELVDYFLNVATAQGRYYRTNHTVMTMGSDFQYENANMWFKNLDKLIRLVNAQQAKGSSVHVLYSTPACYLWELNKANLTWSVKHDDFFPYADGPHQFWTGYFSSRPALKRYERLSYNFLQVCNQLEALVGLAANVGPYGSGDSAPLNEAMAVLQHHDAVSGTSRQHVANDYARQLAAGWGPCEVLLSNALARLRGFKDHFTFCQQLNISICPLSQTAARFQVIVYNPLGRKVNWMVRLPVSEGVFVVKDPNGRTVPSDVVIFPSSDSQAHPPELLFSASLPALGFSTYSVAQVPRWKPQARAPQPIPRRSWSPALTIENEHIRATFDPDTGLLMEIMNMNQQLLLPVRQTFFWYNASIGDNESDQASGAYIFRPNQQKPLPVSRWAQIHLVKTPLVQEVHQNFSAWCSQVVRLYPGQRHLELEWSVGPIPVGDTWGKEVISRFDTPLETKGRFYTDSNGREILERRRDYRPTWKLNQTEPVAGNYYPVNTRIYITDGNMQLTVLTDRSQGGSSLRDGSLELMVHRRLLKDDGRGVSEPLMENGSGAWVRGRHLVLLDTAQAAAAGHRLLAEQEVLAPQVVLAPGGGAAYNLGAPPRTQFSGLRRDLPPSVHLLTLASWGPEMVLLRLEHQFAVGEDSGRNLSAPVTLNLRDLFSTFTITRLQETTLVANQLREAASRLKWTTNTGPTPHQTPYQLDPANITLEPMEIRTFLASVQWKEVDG
Procedure: The effects of the compounds of the invention on lysosomal mannosidase were measured by adding (10 μl) of the compounds into 96 well Elisa plates followed by the addition of 200 mM sodium acetate pH 5.0 and 25 μl of 10 mM p-nitrophenyl α-D-mannospyranoside. 15 μl of lysosomal mannosidase ( about 8 mM/mL) was added to each well and the plates were incubated for 60 min at 37° C. The reaction was stopped by the addition of 50 μl of 0.5M sodium carbonate and formation of p-nitrophenol was measured with a plate set at 405.

[1] = test system: SP1.A3a mouse mammary carcinoma cells; assay: Growth factor dependent proliferation of SP1.A3a cells in vitro (tritiated thymidine); type: cell-based; conditions: 0.2 μg/ml, FIG. 7
Procedure: SP1.A3a mouse mammary carcinoma cells were grown for 24 hours in culture medium containing 10% bovine serum, with and without swainsonine hydrochloride at a concentration of 0.2 μg/ml. In the following 24 hours cells were maintained in serum-free medium (SFM) with and without swainsonine hydrochloride. Cells were then grown in the absence of growth factors for 6 hours, or exposed to one of the following growth factors: TNFα (tumor necrosis factor-α), TGFβ1 (transforming growth factor-β), TGFα, platelet-derived growth factor (PDGF), epidermal growth factor (EGF). Tritiated thymidine was added for a final 18 hours, cells were harvested using a multiple-cell harvester and radioactivity was measured in a β-counter as a measure of cell proliferation.

[2] = test system: SP1.A3a mouse mammary adenocarcinoma; assay: SP1.A3a tumor growth in mice, Alzet mini-osmotic pump; type: in vivo, CBA/J mice; conditions: for difference in mean tumour volume between control and treatment groups: 0.5 mg/kg/day via osmotic pump over 28 days
Procedure: A metastatic subclone of the SP1 tumor line (A3a), mouse mammary adenocarcinoma was maintained in exponential growth in RPMI 1640 containing 10% FBS. The cells were harvested and resuspended at 1×10^6/ml or 1×10^7/ml in PBS and 0.1 ml containing 1×10^5 injected S.C. into the right flank of 7 week old female CBA/J mice (Jackson Laboratories). Alzet mini-osmotic pumps were implanted subcutaneously, on the opposite side of anesthetized animals. The pumps were primed to deliver saline (control) or 0.5 mg/kg/day of swainsonine hydrochloride over 28 days. Mice were monitored for the appearance of a palpable tumour and subsequent tumor growth was measured using bernier callipers. Tumor weights and the number of lung metastasis were measured on day 42.

[3] = test system: granulocyte-macrophage progenitor cells (CFU-GM); assay: Murine bone marrow progenitor cell assay in methylcellulose, CFU-GM; type: cell-based, C57BL/6 mouse; conditions: FIG. 11
Procedure: The healthy and GD0039 treated mice were euthanized by CO2 asphyxiation. Bone marrow (BM) cell suspensions were prepared under sterile conditions by flushing both femurs and tibiae with IMDM/FBS using a 26 gauge needle. Single cell suspensions were made up to 10.0 ml IMDM/FBS. The concentration of nucleated cells in each suspension was determined by triplicate counts on a hemocytometer. A portion of the cells was further diluted in media to the appropriate concentration before plating for the progenitor assay.
Colony-forming units (CFUs) were estimated by the methylcellulose method. One milliliter suspensions, containing 2×10^5 nucleated BM cells, in 0.1 ml of IMDM and 0.9 ml MethoCult (M3330), were plated in triplicate in 35 mm tissue culture dishes. Swainsonine hydrochloride or swainsonine were added to certain plates, in 0.1 ml of IMDM at concentrations of 30 μg/ml and 3 μg/ml, which gave final concentrations of […]. The MethoCult M3330 contains 30% FBS and 10 μg/ml erythropoietin and is designed for the growth of early erythroid progenitor cells (CFU-E), which were scored after 3 days of incubation at 37° C. in a humidified atmosphere containing 5% CO2. […] Colonies containing more than 20 cells were scored using an inverted microscope with brightfield optics and 40× or 100× magnification. […]

[4] = Toxicology studies (acute and chronic); type: in vivo
Procedure: Pharmacological and toxicological studies were conducted with swainsonine hydrochloride. In particular, the following were investigated: (a) pharmacokinetics of the compound in rats and monkeys; (b) acute toxicity at significant multiples of the intended human dose; (c) the toxicity profile of the compound was compared to the literature profile for swainsonine free base; (d) potential for genotoxicity; (e) time course, dose-dependence, tissue sensitivity and reversibility of oligosaccharide accumulation in tissue; and (f) serum AST and relationship to liver histology.

SMILES: Cl.O[C@H]1[C@H]2[C@H](O)CCCN2C[C@@H]1O [swainsonine hydrochloride, (−)-(1S,2S,8R,8aR)-1,2,8-trihydroxyoctahydro-indolizidine hydrochloride salt]
- IC50 (lysosomal mannosidase): 45 ± 10 nM
- TGF-β1 and TNF-α dependent growth stimulation of SP1.A3a cells [1]: suppresses
- difference in mean tumour volume between control and treatment groups ([2]; day 29 as printed): 27%
- difference in mean tumour volume between control and treatment groups ([2]; day 32): 35%
- difference in mean tumour volume between control and treatment groups ([2]; day 42): 32%
- mean tumour weight ([2]; 0.5 mg/kg/day via osmotic pump, 42 day sacrifice, control 7.35 g): 4.87 g
- incidence of lung metastasis, average ([2]; 0.5 mg/kg/day via osmotic pump, day 42 sacrifice, control 1.8): 0.25 nodules/mouse
- effect on granulocyte-macrophage progenitor cells in vitro [3]: stimulate
- dose at which acute toxicity occurs ([4]; acute toxicity): 13,000 times the intended human dose
- sites of oligomannoside accumulation in lysosomes ([4]; chronic studies, doses proposed for humans): thyroid and also possibly the kidney could be the sites of reversible accumulation
